The values that follow come from patent US9714213B2, “4-aminomethylbenzoic acid derivative” (TOA EIYO LTD., priority 2013, dated 2017).

Where two headings read alike, the source gives them in different places.

One assay has as its system rat ventral aorta. The assay is described as follows: Blood vessel relaxation activity, phenylephrine-contracted rat ventral aorta ring specimen. To be noted: relaxation of 1 μmol/L phenylephrine contraction; EC50 without ODQ / EC50 with 10 μmol/L ODQ. As to the method:
A representative compound of the present invention was assayed for blood vessel relaxation activity according to the Test Example described below. In the assay, a rat (male, SD) was phlebotomized from the upper part of the heart under pentobarbital (30 mg/kg) anesthesia, and the ventral aorta was extracted. The connective tissue adhering around the blood vessel in the ventral aorta was removed in an ice-cooled Krebs-Henseleit solution (KH solution) (118 mmol/L sodium chloride, 4.7 mmol/L potassium chloride, 1.2 mmol/L magnesium sulfate, 1.2 mmol/L potassium dihydrogenphosphate, 25 mmol/L sodium hydrogen carbonate, 2.5 mmol/L calcium chloride and 10 mmol/L glucose, pH 7.4). Then, a ring specimen of 2 mm length was prepared, and fixed in 5 mL organ bath filled with the KH solution. The KH solution was maintained at 37° C., and a mixed gas of 95% O2 and 5% CO2 was ventilated. The specimen was stabilized with 1 g of the resting tension for 1 hour. In the meantime, the KH solution was exchanged twice. The tension of the specimen was recorded with a multichannel recorder through a pickup and an amplifier. After stabilization of the specimen, contraction was induced with 1 μmol/L phenylephrine (Phe), and cumulative administration of each compound (0.001, 0.01, 0.03, 0.1, 0.3, 1, 3, 10, 30, 100, 1000, 10000 nmol/L) was carried out. In the case of evaluation at the time of containing ODQ, 10 μmol/L ODQ was added 10 minutes before administration of Phe, and similar evaluation was performed.
EC50 value was calculated by Four-parameter Logistic Model with Assay Explorer (Accelrys, Inc.). Meanwhile, the solution of the test compound was prepared by dissolving the compound in DMSO to prepare solutions having the concentration of each test compound 1000 times higher than the final concentration.

The target in another assay is T1, human sGC (Homo sapiens, UniProt Q02153).
T1 construct: expressed in transfected cells; host or cells: CHO-K1 (Chinese hamster ovary) cells
T1 sequence (Q02153 1-619): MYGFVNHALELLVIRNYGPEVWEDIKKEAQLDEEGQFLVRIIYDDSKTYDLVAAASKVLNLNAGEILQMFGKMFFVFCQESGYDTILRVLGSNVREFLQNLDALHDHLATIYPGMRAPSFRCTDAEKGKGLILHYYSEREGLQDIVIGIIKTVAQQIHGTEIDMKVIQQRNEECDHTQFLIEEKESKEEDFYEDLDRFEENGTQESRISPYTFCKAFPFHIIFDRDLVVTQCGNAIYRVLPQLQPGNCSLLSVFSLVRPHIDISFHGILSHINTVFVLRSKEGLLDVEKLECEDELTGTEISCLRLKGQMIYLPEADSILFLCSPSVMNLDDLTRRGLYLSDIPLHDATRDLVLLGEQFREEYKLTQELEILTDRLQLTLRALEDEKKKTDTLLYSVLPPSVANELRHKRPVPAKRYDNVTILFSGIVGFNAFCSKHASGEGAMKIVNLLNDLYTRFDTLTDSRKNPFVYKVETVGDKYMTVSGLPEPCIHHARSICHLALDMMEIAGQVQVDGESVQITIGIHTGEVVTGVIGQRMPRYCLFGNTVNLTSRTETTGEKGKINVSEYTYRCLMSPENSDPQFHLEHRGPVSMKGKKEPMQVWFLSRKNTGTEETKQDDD
T1 sequence (Q02108 1-690 partner): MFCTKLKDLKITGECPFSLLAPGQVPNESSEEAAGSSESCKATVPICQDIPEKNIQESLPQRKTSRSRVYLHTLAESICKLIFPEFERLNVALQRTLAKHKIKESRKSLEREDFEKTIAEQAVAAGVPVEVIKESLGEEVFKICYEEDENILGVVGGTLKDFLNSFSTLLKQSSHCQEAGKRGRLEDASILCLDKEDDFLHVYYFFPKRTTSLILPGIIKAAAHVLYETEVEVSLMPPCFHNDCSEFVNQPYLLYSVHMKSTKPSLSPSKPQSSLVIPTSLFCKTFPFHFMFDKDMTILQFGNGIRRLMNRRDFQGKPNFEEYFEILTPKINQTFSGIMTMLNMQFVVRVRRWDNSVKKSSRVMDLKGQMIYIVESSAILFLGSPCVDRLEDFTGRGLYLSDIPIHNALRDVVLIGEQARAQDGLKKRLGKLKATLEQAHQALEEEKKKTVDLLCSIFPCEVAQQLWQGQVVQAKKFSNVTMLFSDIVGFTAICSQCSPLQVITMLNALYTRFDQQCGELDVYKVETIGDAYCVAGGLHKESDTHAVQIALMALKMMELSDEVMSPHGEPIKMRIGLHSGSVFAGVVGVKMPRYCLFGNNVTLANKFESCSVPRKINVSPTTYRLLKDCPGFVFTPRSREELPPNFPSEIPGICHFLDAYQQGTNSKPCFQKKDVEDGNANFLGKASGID
The assay is described as follows: Maximum effect of sGC activation (intracellular Ca2+, Fura2-AM) in CHO-K1 cells stably expressing human sGC and mouse CNGA2. The format is cell-based. To be noted: increase rate of sGC activity vs DMSO control, test compound 10 μmol/L. As to the method: For the assay, chinese hamster ovary cells (CHO-K1 cells) stably expressing both α and β subunits of human sGC and mouse cyclic nucleotide-gated channel (CNGA2) were used.
The CHO-K1 cells stably expressing human sGC and mouse CNGA2 was cultured at 37° C. on F-12 medium containing 10% (v/v) fetal bovine serum (FBS), penicillin (100 U/mL), streptomycin (100 μg/mL), G418 (250 μg/mL) and Zeocin (250 μg/mL). The cells were suspended in a culture medium, seeded on a 96 well plate, and then cultured at 37° C. for 24 hours. The cells were washed with Assay buffer 1 (140 mmol/L sodium chloride, 5 mmol/L potassium chloride, 0.5 mmol/L magnesium chloride, 0.01 mmol/L calcium chloride, 10 mmol/L glucose, 0.4 mmol/L magnesium sulfate, 10 mmol/L 4-(2-hydroxyethyl)piperazin-1-ylethanesulfonic acid and 125 μmol/L sulfinpyrazone, pH 7.4), and then added a solution containing Fura2-AM, a fluorescent Ca^2+ indicator, in Assay buffer 1 at […] concentration thereto as an indicator solution, and cultured at 37° C. for 60 minutes. The culture medium was removed, and the cells were washed with Assay buffer 1, and then added a solution containing the test compound thereto, and cultured at room temperature for 10 minutes. A plate was placed onto a fluorometer (FlexStation II, Molecular Devices), and the intracellular calcium concentration was determined as the ratio of fluorescent intensity, obtained from measurement using 340 nm and 380 nm as excitation wavelength and 510 nm as detection wavelength.
The solution of the test compound was prepared by dissolving each test compound in DMSO at 10 mmol/L, and then diluting the solution for the test concentration at 10 μmol/L with Assay buffer (140 mmol/L sodium chloride, 5 mmol/L potassium chloride, 0.5 mmol/L magnesium chloride, 1 mmol/L calcium chloride, 10 mmol/L glucose, 0.4 mmol/L magnesium sulfate, 10 mmol/L 4-(2-hydroxyethyl)piperazin-1-ylethanesulfonic acid, […] sulfinpyrazone, 100 μmol/L isobutyl methyl xanthine, and 10 μmol/L 1H-[1,2,4]-oxadiazol[4,3-a]quinoxaline-1-one (hereinafter, ODQ), pH 7.4). The evaluation in the absence of ODQ was performed similarly, except that ODQ was not added to Assay buffer 2. As a control solution, a DMSO solution was used instead of the test compound solution.
The activity of the test compound defined as the increase rate of the sGC activity (%) at the time of adding the solution of the test compound with respect to the sGC activity at the time of adding the control solution, was calculated by dividing the fluorescent intensity ratio at the time of adding the test compound by the fluorescent intensity ratio of the control solution, and subtracting the sGC activity at the time of adding the control solution (100%).
If sGC is activated in this assay, intracellular cGMP concentration increases and accordingly intracellular Ca^2+ concentration is increased by opening of CNGA2. Accordingly, sGC activation can be measured as the change of Ca^2+ concentration in the cell. […] Accordingly, it is possible to evaluate maximum sGC activation effect including heme-dependent activation in the absence of ODQ, and also possible to evaluate heme independent sGC activation effect in the presence of ODQ.

Where [1] appears, read: 10 μmol/L ODQ present, read-out: Emax (%) ODQ+ (Heme-independent).
Where [2] appears, read: absence of ODQ, read-out: Emax (%) ODQ− (Heme-dependent).

With `O=C(O)CCCCN(CCc1ccccc1OCc1ccc(CCc2ccccc2)cc1)Cc1ccc(C(=O)O)cc1` [Cinaciguat, reference compound], in the assay on rat ventral aorta, the “EC50 Ratio (ODQ−/ODQ+)” value is recorded as 12.4. Take `CC(C)(C)c1cccc(COC(CN(CCCCC(=O)O)Cc2ccc(C(=O)O)cc2)c2ccccc2)c1` (stereo not shown) [Example 10, 4-{[N-[2-(3-tert-Butylbenzyloxy)-2-phenylethyl]-N-(4-carboxybutyl)amino]methyl}benzoic acid]: the Emax – broadly, the maximal effect, on the per cent scale that the assay sets – at 10 µM at human sGC (setting [1]) came out at 141%; on human sGC (setting [2]), 103%. The like results for `O=C(O)CCCCCN(Cc1ccc(C(=O)O)cc1)CC(OCc1ccc(CCc2ccccc2)cc1)c1ccccc1` (stereo not shown) [Example 15, 4-{[N-(5-Carboxypentyl)-N-[2-[4-(2-phenylethyl)benzyloxy]-2-phenylethyl]amino]methyl}benzoic acid] were, in that order, 87.7% and 89.1%. For the molecule `CC(C)(CCN(Cc1ccc(C(=O)O)cc1)CC(OCc1ccc(CCc2ccccc2)cc1)c1ccccc1)CC(=O)O` (stereo not shown) [Example 18], the Emax at 10 µM on human sGC (setting [1]) turned out to be 129%; at human sGC (setting [2]) it was 96.2%. For `O=C(O)CCCCN(Cc1ccc(C(=O)O)cc1)CC(OCc1ccc(CCc2ccccc2)cc1)c1cccc(Cl)c1` (stereo not shown) [Example 22, 4-{[N-(4-Carboxybutyl)-N-[2-(3-chlorophenyl)-2-[4-(2-phenylethyl)benzyloxy]ethyl]amino]methyl}benzoic acid], in that order: 115% and 106%. For `O=C(O)CCCCN(Cc1ccc(C(=O)O)cc1)CC(OCc1ccc(CCc2ccccc2)s1)c1cccc(Cl)c1` (stereo not shown) [Example 24, 4-{[N-(4-Carboxybutyl)-N-[2-(3-chlorophenyl)-2-[5-(2-phenylethyl)thiophen-2-ylmethoxy]ethyl]amino]methyl}benzoic acid], the Emax at 10 µM was determined as 132% at human sGC (setting [1]) and 150% at human sGC (setting [2]).

With `N#Cc1cccc([C@H](CN(CCCCC(=O)O)Cc2ccc(C(=O)O)cc2)OCc2ccc(CCc3ccccc3)cc2)c1` [Example 30, (−)-4-{[N-(4-Carboxybutyl)-N-[(2R)-2-(3-cyanophenyl)-2-[4-(2-phenylethyl)benzyloxy]ethyl]amino]methyl}benzoic acid], the Emax at 10 µM at human sGC (setting [1]) was determined as 129%; on human sGC (setting [2]), 83.4%. The like results for `CC(C)(C)c1cccc(CO[C@@H](CN(CCCCC(=O)O)Cc2ccc(C(=O)O)cc2)c2cccc(Cl)c2)c1` [Example 34, (−)-4-{[N-[(2R)-2-(3-tert-Butylbenzyloxy)-2-(3-chlorophenyl)ethyl]-N-(4-carboxybutyl)amino]methyl}benzoic acid] were, in that order, 125% and 82.3%. The like results for `O=C(O)CCCCN(Cc1ccc(C(=O)O)cc1)C[C@H](OCc1ccc(CCC2CCCC2)cc1)c1ccccc1` [Example 39, (−)-4-{[N-(4-Carboxybutyl)-N-[(2R)-2-[4-(2-cyclopentylethyl)benzyloxy]-2-phenylethyl]amino]methyl}benzoic acid] were, in that order, 142% and 148%.

On to `O=C(O)CCCCN(Cc1ccc(C(=O)O)cc1)C[C@H](OCc1ccc(CCc2ccc(Cl)cc2)cc1)c1ccccc1` [Example 40, (−)-4-{[N-(4-Carboxybutyl)-N-[(2R)-2-[4-[2-(4-chlorophenyl)ethyl]benzyloxy]-2-phenylethyl]amino]methyl}benzoic acid], for which the Emax at 10 µM at human sGC (setting [1]) stood at 120%; at human sGC (setting [2]), 127%. For `O=C(O)CCCCN(Cc1ccc(C(=O)O)cc1)C[C@H](OCc1ccc(CCc2ccccc2)s1)c1ccccc1` [Example 43, (−)-4-{[N-(4-Carboxybutyl)-N-[(2R)-2-[5-(2-phenylethyl)thiophen-2-ylmethoxy]-2-phenylethyl]amino]methyl}benzoic acid], in that order: 124% and 108%. For `CC(C)(C)c1cc(CO[C@@H](CN(CCCCC(=O)O)Cc2ccc(C(=O)O)cc2)c2ccccc2)cc(C(C)(C)C)c1` [Example 46, (−)-4-{[N-(4-Carboxybutyl)-N-[(2R)-2-(3,5-di-tert-butylbenzyloxy)-2-phenylethyl]amino]methyl}benzoic acid], in that order: 108% and 161%. On to `O=C(O)CCCCN(Cc1ccc(C(=O)O)cc1)CC(OCc1cccc(CCc2ccccc2)c1)c1ccccc1` (stereo not shown) [Example 60, 4-{[N-(4-Carboxybutyl)-N-[2-[3-(2-phenylethyl)benzyloxy]-2-phenylethyl]amino]methyl}benzoic acid], for which the Emax at 10 µM at human sGC (setting [1]) came to 88.9%; at human sGC (setting [2]) it was 110%.
